Where two headings read alike, the source gives them in different places.
Legend:
hTAS2R39 [1] = target: T1, hTAS2R39 (Homo sapiens, UniProt P59534); set-up: method as in PMID 24117141; conditions: cited from earlier work
T1 construct: first 45 amino acids of rat somatostatin receptor type 3 (sst3 membrane-targeting tag) (N); expressed in transfected cells; host or cells: HEK293 T-Rex Flp-In cells stably expressing Gα16-gust44; receptor in pcDNA5/FRT, induced with doxycycline
T1 sequence (P59534 1-338): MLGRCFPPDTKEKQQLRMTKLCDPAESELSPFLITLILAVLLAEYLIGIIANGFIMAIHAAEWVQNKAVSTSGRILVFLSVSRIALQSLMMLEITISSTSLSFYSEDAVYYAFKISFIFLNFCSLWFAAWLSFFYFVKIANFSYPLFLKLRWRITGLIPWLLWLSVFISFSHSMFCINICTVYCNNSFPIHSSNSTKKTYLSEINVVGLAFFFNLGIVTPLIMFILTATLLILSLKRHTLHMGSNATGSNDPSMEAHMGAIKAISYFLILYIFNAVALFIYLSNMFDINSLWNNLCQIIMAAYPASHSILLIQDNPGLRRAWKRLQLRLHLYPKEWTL

hTAS2R39 [2] = target: T1, hTAS2R39; experiment: Calcium assay of hTAS2R39 activation/inhibition in HEK293 T-Rex Flp-In cells; assay type: cell-based; conditions: for reduction of ECG response on hTAS2R39 (screening for inhibition): simultaneous application of 200 μM ECG and 250 μM flavanone, inhibition when response ratio <1; for EC80 on hTAS2R39: agonist dose-response curve
bitter taste = test system: bitter taste; set-up: method as in PMID 16028996; conditions: in-vivo sensory masking, unknown mechanism; cited from earlier work
hTAS2R14 = target: T2, hTAS2R14 (Homo sapiens, UniProt Q9NYV8); experiment: Calcium assay of hTAS2R14 activation/inhibition in HEK293 T-Rex Flp-In cells; assay type: cell-based; conditions: for EC80 on hTAS2R14: agonist concentration used in inhibition tests; for IC50, Simultaneous / Threshold, Simultaneous: simultaneous addition, n.b. = no blocking
T2 construct: first 45 amino acids of rat somatostatin receptor type 3 (sst3 membrane-targeting tag) (N); expressed in transfected cells; host or cells: HEK293 T-Rex Flp-In cells stably expressing Gα16-gust44; induced with doxycycline
T2 sequence (Q9NYV8 1-317): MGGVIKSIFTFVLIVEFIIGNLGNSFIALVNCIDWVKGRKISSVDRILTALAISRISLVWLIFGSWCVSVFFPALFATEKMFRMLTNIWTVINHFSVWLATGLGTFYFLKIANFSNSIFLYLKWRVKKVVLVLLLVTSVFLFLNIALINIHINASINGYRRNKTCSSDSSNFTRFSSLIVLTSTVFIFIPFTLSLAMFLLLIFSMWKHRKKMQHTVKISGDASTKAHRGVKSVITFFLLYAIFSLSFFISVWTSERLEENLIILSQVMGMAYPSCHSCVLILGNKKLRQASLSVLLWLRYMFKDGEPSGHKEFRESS
Excerpt: For functional expression of the human bitter taste receptor hTAS2R39, HEK293 T-Rex Flp-In cells (Invitrogen, San Diego, CA, USA) were used, stably expressing the chimeric G-protein α-subunit Gα16-gust44 (cloned into pcDNA4 (Invitrogen)) and the human bitter receptor genes for hTAS2R39 (cloned into pcDNA5/FRT (Invitrogen)). The bitter receptor gene contained a DNA sequence encoding the first 45 amino acids of rat somatostatin receptor type 3 at its 5′ end (the receptor expression was achieved according to [18] with exception of the HSV-tag), in order to improve membrane targeting of the receptor protein. The same procedure was applied for stable expression of hTAS2R14. Cells were maintained in Dulbecco's Modified Eagle's Medium (DMEM) and 10% (v/v) tetracycline-free FBS (both Lonza, Verviers, Belgium) supplemented with blasticidin (5 μg/mL), geneticin (400 μg/mL) and hygromycin (100 μg/mL) (all from Invitrogen). Cells were grown and maintained at 37 °C and 5% (v/v) CO2.
Cells were seeded into poly-L-lysine-coated (Sigma-Aldrich) 96-well plates (black wall, clear bottom, Greiner bio-one, Frickenhausen, Germany) at a density of 7*10^3 cells in 100 μL/well and cultured for 24 h. Transcription of the receptors was induced by adding 0.25 μg/mL doxycycline (Sigma-Aldrich). […] One hour after loading, cells were washed with Tyrode's buffer and taken up in Tyrode's buffer. Stock solutions of test compounds were prepared in DMSO and diluted to the appropriate concentration in Tyrode's buffer, not exceeding a DMSO concentration of 1% (v/v).
(§1) Two methods of compound administration were applied: simultaneous and stepwise addition of potential antagonist and agonist. The first 17 s before compound addition were used for baseline determination. For the simultaneous method, agonist and potential antagonist were pre-mixed, administered after 17 s, and fluorescence was measured for in total 90 s. For the stepwise method, after 17 s, the potential antagonist was added, fluorescence was measured until 120 s, and after 120 s the agonist was added and measured for another 120 s, in total 240 s. […] Each experiment was performed at least in duplicate in separate experiments (as indicated for each figure).
Data processing was done as reported previously. In brief, SoftMax Pro 5.4 software (Molecular Devices Corporation) was used to plot the fluorescence signals. The fluorescence value (ΔF/F0), representing receptor activity, was calculated by subtracting the baseline fluorescence (F0) prior to loading from the maximum fluorescence (F) after compound addition, divided by the signal of the baseline in order to normalize background fluorescence. Dose-response curves were established as non-linear regression curves using Graph Pad Prism (version 4 for Windows, Graph Pad Software, San Diego, CA, USA). Half-maximal effective concentrations (EC50) and half-maximal inhibitory concentrations (IC50) were calculated. Error bars reflect the standard error of the mean (SEM). Statistical analysis was performed in Graph Pad Prism (one-way ANOVA at 5% risk level, followed by Bonferroni's post hoc test).
Inhibition was indicated when [drawing 1] . In case of indicated inhibition, flavanones were applied at different concentrations, in order to test for dose-dependent inhibition, at the EC80 concentration of the agonist. […] To investigate the specificity of flavanones for inhibition of hTAS2R39 and hTAS2R14, another bitter taste receptor, hTAS2R16 (not known to be activated by flavonoids), was used in inhibition experiments ( File S3 ) towards its agonist salicin.

hTAS2R16 = target: T3, hTAS2R16 (Homo sapiens, UniProt Q9NYV7); experiment: Calcium assay of hTAS2R16 activation/inhibition (salicin as agonist); assay type: cell-based
T3 construct: expressed in transfected cells; host or cells: induced versus non-induced cells
T3 sequence (Q9NYV7 1-291): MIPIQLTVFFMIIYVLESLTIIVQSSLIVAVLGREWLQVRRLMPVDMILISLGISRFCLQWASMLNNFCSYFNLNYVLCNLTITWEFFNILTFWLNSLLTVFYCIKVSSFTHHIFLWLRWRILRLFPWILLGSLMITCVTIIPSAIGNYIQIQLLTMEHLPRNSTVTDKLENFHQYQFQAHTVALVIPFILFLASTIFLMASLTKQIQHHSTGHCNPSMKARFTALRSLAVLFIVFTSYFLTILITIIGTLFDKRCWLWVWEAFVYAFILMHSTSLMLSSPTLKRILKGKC
Experimental: Cells were seeded into poly-L-lysine-coated (Sigma-Aldrich) 96-well plates (black wall, clear bottom, Greiner bio-one, Frickenhausen, Germany) at a density of 7*10^3 cells in 100 μL/well and cultured for 24 h. Transcription of the receptors was induced by adding 0.25 μg/mL doxycycline (Sigma-Aldrich). Cells were induced for 24 h and then loaded with the calcium-sensitive fluorescent dye Fluo-4-AM (2.5 μM, Invitrogen), which was dissolved in Tyrode's buffer containing 5% (v/v) tetracycline-free FBS (Lonza). One hour after loading, cells were washed with Tyrode's buffer and taken up in Tyrode's buffer. Stock solutions of test compounds were prepared in DMSO and diluted to the appropriate concentration in Tyrode's buffer, not exceeding a DMSO concentration of 1% (v/v).
as §1, with “Receptor activation or inhibition was measured via intracellular Ca^2+ release in a FlexStation II 384 or FlexStation III (Molecular Devices Corporation, Sunnyvale, CA, USA) by measuring fluorescence (excitation 485 nm/emission 520 nm) for either 90 s or 240 s at 37°C. Two” for “Two”
Screening for hTAS2R39 inhibition by flavanones was performed with simultaneous application of agonist (200 μM ECG) and putative antagonist (250 μM flavanone). Inhibition was indicated when [drawing 1] . In case of indicated inhibition, flavanones were applied at different concentrations, in order to test for dose-dependent inhibition, at the EC80 concentration of the agonist. Another agonist of hTAS2R39, denatonium benzoate, was used in inhibition experiments at 1.7 mM (EC80). hTAS2R14 inhibition was tested with 640 μM ECG or 70 μM genistein as agonists, representing their respective EC80 concentrations. To investigate the specificity of flavanones for inhibition of hTAS2R39 and hTAS2R14, another bitter taste receptor, hTAS2R16 (not known to be activated by flavonoids), was used in inhibition experiments ( File S3 ) towards its agonist salicin.
SUPPORTING INFORMATION to the article “6-Methoxyflavanones as Bitter Taste Receptor Blockers for hTAS2R39” by Roland, WSU; Gouka, RJ; Gruppen, H; Driesse, M; van Buren, L; Smit, G; Vincken, J-P File S3 Investigation of identified inhibitors on hTAS2R16.
To investigate whether the hTAS2R39 inhibitors 6,3’-dimethoxyflavanone (3), 4’- fluoro-6-methoxyflavanone (6), and 6-methoxyflavanone (11) were able to inhibit a bitter receptor not known for flavonoid activation, hTAS2R16 was selected for inhibition experiments. Measuring dose-response curves of the hTAS2R16 agonist […]
Figure S3. Inhibition of response of 10 mM salicin (---) on hTAS2R16 (induced (●), non-induced (○)) by 4’-fluoro-6-methoxyflavanone (6) after simultaneous addition (A) and stepwise addition (B), by 6,3’-dimethoxyflavanone (3) after simultaneous addition (C) and stepwise addition (D), and by 6-methoxyflavanone (11) after simultaneous addition (E) and stepwise addition (F). […]

[3] = inhibition of hTAS2R14 response to 70 μM genistein
[4] = inhibition of hTAS2R14 response to 640 μM ECG
[5] = 0 μM 4′-fluoro-6-methoxyflavanone (6), stepwise addition, read-out: EC50 of agonist on hTAS2R39

O=C1CC(c2ccc(O)cc2)Oc2ccccc21 (stereo not shown) [Compound 10, 4′-Hydroxyflavanone]
activation of hTAS2R39 in a previous study (hTAS2R39 [1]): b no activation of hTAS2R39 in a previous study [16].

O=C1CC(c2ccccc2)Oc2ccc(O)cc21 (stereo not shown) [Compound 8, 6-Hydroxyflavanone]
reduction of ECG response on hTAS2R39 (screening for inhibition) (hTAS2R39 [2]): did not show inhibitory activity

COc1cc([C@@H]2CC(=O)c3c(O)cc([O-])cc3O2)ccc1O.[Na+] [homoeriodictyol Na-salt, reference compound]
reduction of the bitter taste of different chemical classes of bitter molecules (bitter taste): up to 40%

O=c1c(-c2ccc(O)cc2)coc2cc(O)cc(O)c12 [genistein, reference compound]
EC80 on hTAS2R14 (hTAS2R14): 70 µM

COc1cccc(C2CC(=O)c3cc(OC)ccc3O2)c1 (stereo not shown) [Compound 3, 6,3′-Dimethoxyflavanone]
IC50, Simultaneous (hTAS2R14; [3]): n.b. | Threshold, Simultaneous (hTAS2R14; [3]): n.b. | IC50, Simultaneous (hTAS2R14; [4]): n.b. | Threshold, Simultaneous (hTAS2R14; [4]): n.b. | IC50 (hTAS2R14; inhibition of hTAS2R14 response to 640 μM ECG, stepwise addition): ~250 µM | inhibition of salicin response on hTAS2R16 (hTAS2R16; 10 mM salicin, simultaneous and stepwise addition): no inhibition

COc1ccc2oc(-c3ccccc3)cc(=O)c2c1 [6-methoxyflavone, reference compound]
inhibition of hTAS2R39 activation (hTAS2R39 [2]; data not shown): unable to inhibit hTAS2R39 activation

CC[N+](CC)(CC(=O)Nc1c(C)cccc1C)Cc1ccccc1 [Denatonium benzoate, denatonium benzoate, reference compound]
EC50 (hTAS2R39 [2]; [5]): 659 ± 334 µM | EC80 on hTAS2R39 (hTAS2R39 [2]): 1.7 mM | EC50 (hTAS2R39 [2]; agonist dose-response curve (data not shown), read-out: EC50 on hTAS2R39): 711 µM

COc1ccc2c(c1)OC(c1ccccc1)CC2=O (stereo not shown) [Compound 12, 7-Methoxyflavanone]
reduction of ECG response on hTAS2R39 (screening for inhibition) (hTAS2R39 [2]): did not show inhibitory activity

OCc1ccccc1O[C@@H]1O[C@H](CO)[C@@H](O)[C@H](O)[C@H]1O [salicin, reference compound]
EC80 on hTAS2R16 (hTAS2R16; agonist dose-response curve): 10 mM

O=C1CC(c2ccccc2)Oc2ccccc21 (stereo not shown) [Compound 5, Flavanone]
activation of hTAS2R39 in a previous study (hTAS2R39 [1]): b no activation of hTAS2R39 in a previous study [16]. | reduction of ECG response on hTAS2R39 (screening for inhibition) (hTAS2R39 [2]): did not show inhibitory activity

COc1ccc(C2CC(=O)c3ccccc3O2)cc1 (stereo not shown) [Compound 13, 4′-Methoxyflavanone]
reduction of ECG response on hTAS2R39 (screening for inhibition) (hTAS2R39 [2]): did not show inhibitory activity

O=C(O[C@@H]1Cc2c(O)cc(O)cc2O[C@@H]1c1ccc(O)c(O)c1)c1cc(O)c(O)c(O)c1 [ECG, Epicatechin gallate, reference compound]
EC80 on hTAS2R14 (hTAS2R14): 640 µM | EC50 (hTAS2R39 [2]; [5]): 128 ± 82 µM | EC80 on hTAS2R39 (hTAS2R39 [2]): 0.2 mM

From paper PMC3983201, “6-Methoxyflavanones as Bitter Taste Receptor Blockers for hTAS2R39” (PLoS ONE, 2014)
